Source: US20200046617A1, “Composition For Combating The Signs Of Ageing Of The Skin And Hair And Nails” (TOMCAT INTERNATIONAL LIMITED, priority 2017, published 2020)

Legend:
Assay type in all cases: cell-based
human fibroblasts [1] = assay: Intracellular ATP production by cultivated human fibroblasts (chemiluminescence-based assay); conditions: resveratrol 1 μM, betaine 1 mM or mixture; for ATP (μM per cell) Mean value: 120 min incubation, mean of 4 measurements; for ATP Increase (%): with respect to ATP level in untreated cells, 120 min
Experimental: Human fibroblasts were cultured at 37° C. in wet atmosphere with 5% CO2, on MEM supplemented with glucose, serum and glutamine. A solution containing trans-resveratrol and/or betaine is added to the culture medium:
The primary fibroblast cultures are incubated for 120 min with resveratrol at a final concentration of 1 μM, betaine at a concentration of 1 mM or a mixture of the two.
The cell viability is measured after incubation by fluorescence. The intracellular ATP concentration is measured by a chemiluminescence-based assay; the mean of 4 measurements is taken.
The intracellular ATP concentrations are expressed in μM of ATP per viable cell and percent of ATP increase is calculated with respect to the ATP level in untreated cells.

human fibroblasts [2] = assay: Mitochondrial mass of FK866-treated human fibroblasts (Nonyl Acridine Orange probe, flow cytometry); conditions: for Effect of treatment against FK866 on mitochondrial mass (in words): fibroblasts treated with FK866; for Mitochondrial mass Increase (%): vs FK866 2.5 nM non treated
Experimental: Human fibroblasts were cultured at 37° C. in wet atmosphere with 5% CO2, on MEM supplemented with glucose, serum and glutamine. The cells are treated with a chemical agent (FK866) in the presence or absence of the following compounds: Trans-resveratrol and Betaine. Agent FK866 reduces the cell mitochondrial mass, thereby mimicking one of the signs of ageing.
Under these conditions, the ability of the active ingredient to increase the mitochondrial mass is assessed.
After 24 h treatment, the mitochondrial mass is therefore measured using the Nonyl Acridine Orange (NAO, Invitrogen) probe which fluoresces at 533 nm. The cell viability can be measured by DAPI staining. A flow cytometry analysis is conducted with a FACS LSRII and the results analysed by FlowJo software.

Col1A1 = Col1A1 gene expression in cutaneous fibroblasts (quantitative real-time PCR); conditions: 24 h, resveratrol 4 μM, betaine 5 mM or both; for Relative expression of Col1A1 Mean value: relative to untreated (ΔΔCt); for Relative expression of Col1A1 Increase (%): vs untreated
Experimental: Cutaneous fibroblasts were cultured for 24 h with resveratrol, betaine or mixtures of the two compounds.
For the gene expression analysis, the total RNAs were extracted from the fibroblast cultures and the expression measured by quantitative real-time PCR. RNA extraction was carried out using an RNeasy Mini Kit (Qiagen). The total RNAs were used for the cDNA synthesis using the iScript cDNA synthesis Kit (Biorad). The PCR reactions were conducted using the mix LightCycler® 480 SYBR Green I Master (Roche). To compare the relative expressions, the Δ ΔCt method was used. The relative expression of the gene of interest is represented by the expression variation compared with the untreated samples.

[3] = in presence of FK866 2.5 nM, 24 h, betaine 5 mM, resveratrol 25 μM or both
[4] = 24 h, betaine 5 mM, resveratrol 25 μM or both

Row | Structure (SMILES) | ATP (μM per cell) Mean value (human fibroblasts [1]) [μM per cell] | ATP Increase (%) (human fibroblasts [1]) | Effect of treatment against FK866 on mitochondrial mass (in words) (human fibroblasts [2]) | Mitochondrial mass (fluorescence units) Mean (human fibroblasts [2]; [3]) [fluorescence units] | Mitochondrial mass Increase (%) (human fibroblasts [2]; [4]) | Relative expression of Col1A1 Mean value (Col1A1) | Relative expression of Col1A1 Increase (%) (Col1A1) | Mitochondrial mass Decrease (%) (human fibroblasts [2]; FK866 2.5 nM alone vs basal, 24 h) | Mitochondrial mass (fluorescence units) Mean (human fibroblasts [2]; FK866 2.5 nM alone, 24 h treatment) [fluorescence units] | Effect of FK866 on mitochondrial mass of fibroblasts (in words) (human fibroblasts [2]; FK866 alone)
1 | C[N+](C)(C)CC(=O)[O-] [Betaine, trimethylglycine] | 0.080 | 20 | protects against the effects of FK866 | 1574 | 19 | 1.28 | 28 |  |  | 
2 | O=C(/C=C/c1cccnc1)NCCCCC1CCN(C(=O)c2ccccc2)CC1 [FK866, reference compound] |  |  |  |  |  |  |  | 10 | 1326 | decreases the mitochondrial mass
3 | Oc1ccc(C=Cc2cc(O)cc(O)c2)cc1 [Resveratrol, 3,5,4′-trihydroxystilbene] | 0.086 | 28 | protects against the effects of FK866 | 2285 | 72 | 1.22 | 22 |  |  | 
